Among the data in patent US12503452B2 (Curza Global, LLC, priority 2019, dated 2025) are IC50 and MIC values, retold here.

In general, MIC refers to the lowest concentration found to suppress growth.

Counter-ions that a name gives are not always drawn. Like-named read-outs stand apart in the source and are kept apart here. Bounds are passed on as bounds.

Assay [1] has as its system E. coli S30 extract (bacterial protein synthesis). Briefly: E. coli S30 extract coupled transcription-translation luciferase assay (inhibition of bacterial protein synthesis). In kind it is biochemical. The note with it: class by IC50 or % inhibition @ 1 μM, read-out: S30 IC50 (μM/% inhib.). As for the experimental part:
E. coli S30 extract: Inhibition of bacterial protein synthesis was determined using the E. coli S30 Extract System for Circular DNA (Promega catalog #L-2010) and Luciferase Assay Reagent (Promega catalog #E1500) with slight modifications to a published protocol. Fyfe, C., Sutcliffe, J. A. and Grossman, T. H. (2012) “Development and characterization of a Pseudomonas aeruginosa in vitro coupled transcription-translation assay system for evaluation of translation inhibitors” J. Microbiol. Methods 90(3), 256-261.
Compounds were serial diluted in 0.5 mL microcentrifuge tubes by mixing and transferring 50 μL from the highest concentration to 50 μL of water, mixing and transferring 50 μL of this 2-fold dilution to 50 μL of water. This mixing and transferring was repeated so that there are a total of 8 tubes with serial dilutions of compound at 10× the desired screening concentration that are ultimately diluted to 1× by the addition of S30 luciferase synthesis mixture. Serial dilutions of compounds were added (2 μL) to wells in a black round bottom 96-well plate. Water (2 μL) was used as a “no inhibitor” control in 4 wells/plate. No DNA control reaction mixture (20 μL; see below) was used as a control in 4 wells/plate for background luminescence. S30 luciferase synthesis mixture (18 μL; see below) was added to wells with compounds or water mixture and incubated at 37° C. for 1 hour. Reactions were stopped by transferring to 4° C. refrigerator for 5 minutes then 25 μL of luciferase activity mix was added. Luminescence was measured using a BioTek Synergy HTX plate reader. % Inhibition was determined relative to no inhibitor controls.
S30 luciferase synthesis mixture:
• 445 μL S30 extract, circular • 712 μL S30 Premix without amino acids • 4.45 μL pBESTluc™ DNA (1 μg/μL) • 78 μL complete amino acid mixture • 267 μL water No DNA control: • 20 μL S30 extract, circular • 32 μL S30 Premix without amino acids • 7 μL complete amino acid mixture • 21 μL water Rabbit Reticulocyte lysate

The subject of a further assay is E. coli (Ec). Description: Broth microdilution minimum inhibitory concentration (MIC). The format is cell-based. As to conditions: Escherichia coli, read-out: E. coli + bicarb MIC. As for the experimental part: A certified BSL-2 laboratory was used for testing. Compounds were evaluated using the broth microdilution minimum inhibitory concentration (MIC) and minimum bactericidal concentration (MBC) assays defined by Clinical and Laboratory Standards Institute (CLSI) in the M26-A guideline against S. aureus (Sa), E. coli (Ec), K. pneumoniae (Kp), A. baumannii (Ab), E. faecalis (Ef) and P. aeruginosa (Pa).
MICs were determined using the Clinical Laboratory and Standards Institute (CLSI) Broth Microdilution Method with slight modification. Clinical and Laboratory Standards Institute (2012). “Methods for dilution antimicrobial susceptibility tests for bacteria that grow aerobically; approved standard, 9th ed. M07-A9. Clinical and Laboratory Standards Institute, Wayne, PA” Serial two-fold dilutions of compounds are prepared in sterile clear round-bottom 96-well plates.
To prepare microdilution trays, two-fold dilutions of antimicrobial agent are prepared in growth medium: Cation-Adjusted Mueller-Hinton Broth (CAMHB), or CAMHB supplemented with sodium bicarbonate (6.25 or 25 mM final concentration prepared from a 1.0M stock solution) or CAMHB supplemented with heat inactivated human serum (Fisher Cat. #BP2657100) 0-50% by adding 200 μL of the highest concentration to be tested (64 μg/mL, for example) in row A, mixing and transferring 100 μL from row A to 100 μL growth medium in row B, then repeating the mixing and transferring through row H of the 96-well plate, discarding the excess 100 μL remaining. This slight modification to the CLSI protocol enables evaluation of MICs for 3 compounds per plate in triplicate, albeit with only 8 compound dilutions (CLSI protocol enables 2 compounds in triplicate with 10 dilutions). Bacterial suspensions are added to a final concentration of 5×10^4 CFU/well by adding 5 μL of a 1:10 dilution of a 0.5 McFarland suspension (1×10^8 CFU/mL) for each bacterium evaluated. Bacterial suspensions were prepared using the growth method described by CLSI. Well-isolated colonies (3-5 from an agar plate) were selected using a sterile loop and used to inoculate a tube containing 4 mL of CAMHB. The cultures are incubated at 35±2° C. until it achieves or exceeds the turbidity of the 0.5 McFarland standard, determined by measuring A600nm (usually two to six hours). When growth exceeds a 0.5 McFarland standard, the turbidity is adjusted with broth to be equivalent to a 0.5 McFarland standard.
A general note: Dilution methods test growth across graded concentrations, often in twofold steps.

For assay [2], the target named is Rabbit Reticulocyte Lysate (eukaryotic protein synthesis). Briefly: Rabbit reticulocyte lysate luciferase assay (inhibition of eukaryotic protein synthesis). In kind it is biochemical. As to conditions: class by IC50 or % inhibition @ 1 μM, read-out: Rabbit reticulocyte IC50 (μM/% inhib.). As for the experimental part:
Inhibition of eukaryotic protein synthesis was determined using the Rabbit Reticulocyte Lysate System, Nuclease-Treated from Promega (catalog #L-4960) with slight modifications to the manufacturer's protocol. Compounds were serial diluted in 0.5 mL microcentrifuge tubes by mixing and transferring 50 μL from the highest concentration to 50 μL of water, mixing and transferring 50 μL of this 2-fold dilution to 50 μL of water. This mixing and transferring was repeated so that there are a total of 8 tubes with serial dilutions of compound at 10× the desired screening concentration that are ultimately diluted to 1× by the addition of rabbit reticulocyte luciferase synthesis mixture. Serial dilutions of compounds were added ([…]) to wells in a black round bottom 96-well plate. Water (2.5 μL) was used as a “no inhibitor” control in 4 wells/plate. No RNA control reaction mixture ([…]; see below) was used as a control in 4 wells/plate for background luminescence. Rabbit reticulocyte luciferase synthesis mixture (22.5 μL; see below) was added to wells with compounds or water mixture and incubated at 30° C. for 90 minutes. Luciferase assay reagent (25 μL) was added with luminescence measured using a BioTek Synergy HTX plate reader. % Inhibition was determined relative to no inhibitor controls.
Rabbit reticulocyte luciferase synthesis mixture:
• 1,000 μL rabbit reticulocyte lysate • 5.7 μL Luciferase Control RNA (1 μg/μL) • 26 μL complete amino acid mixture • 395 μL water No RNA Control • 70 μL rabbit reticulocyte lysate • 2 μL complete amino acid mixture • 28 μL water Minimum Inhibitory Concentration (MIC)

The mark [3] stands for this setting: E. coli, growth medium with sodium bicarbonate.
Where [4] appears, read: E. coli, growth medium supplemented with sodium bicarbonate.

On to `CC(C)(N)C(=O)N1CCN(C(=O)Nc2ccn(-c3ccc(CN4CCC(O)(CN)CC4)cc3)c(=O)n2)CC1` [Compound 215], for which, in assay [1], the IC50 was < 0.5 µM. The MIC with E. coli (Ec) (setting [3]) is < 8 µg/mL.
For `CC(C)(N)C(=O)N1CCN(C(=O)Nc2ccn(-c3ccc(CN4CC[C@@H](N)C(O)C4)cc3)c(=O)n2)CC1` (stereo partly drawn) [Compound 267], the IC50 in assay [1] is < 0.5 µM; in assay [2] it was > 1 µM. The MIC with E. coli (Ec) (setting [3]) was < 8 µg/mL.
Turning to `CC(C)(N)C(=O)N1CCN(C(=O)Nc2ccn(-c3ccc(C(C(=O)O)N4CCC(N)CC4)cc3)c(=O)n2)CC1` (stereo not drawn) [Compound 93], the IC50 in assay [1] was > 1 µM. Moreover, the MIC with E. coli (Ec) (setting [4]) is > 32 µg/mL.
Consider `Cc1cn(-c2ccc(CN3CCC(N)CC3)cc2)c(=O)nc1NC(=O)N1CCN(C(=O)C(C)(C)N)CC1` [Compound 234], for which the IC50 in assay [1] and in assay [2] was > 1 µM throughout. For the same compound, in the assay with E. coli (Ec) (setting [3]), the minimum inhibitory concentration (MIC) is > 32 µg/mL.
For the compound `CC1CC(N)CCN1Cc1ccc(-n2ccc(NC(=O)N3CCN(C(=O)C(C)(C)N)CC3)nc2=O)cc1` (stereo not drawn) [Compound 252], the IC50 in assay [1] was < 0.5 µM; in assay [2], > 1 µM. In the assay with E. coli (Ec) (setting [3]), the MIC was < 8 µg/mL.
The matching figures for `CC1(N)CCCN(Cc2ccc(-n3ccc(NC(=O)N4CCN(C(=O)C(C)(C)N)CC4)nc3=O)cc2)CC1.Cl` (stereo not drawn) [Compound 255]: < 0.5 µM, > 1 µM and < 8 µg/mL.
For the compound `CC1(N)CCCN(Cc2ccc(-n3ccc(NC(=O)N4CCN(C(=O)C(C)(C)N)CC4)nc3=O)cc2)C1` (stereo not drawn) [Compound 246], the IC50 in assay [1] and in assay [2] was > 1 µM in each case. The minimal inhibitory concentration (MIC) with E. coli (Ec) (setting [3]) is < 8 µg/mL.
As to `CC(C)(N)C(=O)N1CCN(C(=O)Nc2ccn(-c3ccc(CN4CC(N)C4)cc3)c(=O)n2)CC1` [Compound 244], the IC50 in assay [1] and in assay [2] was > 1 µM each time. The minimal inhibitory concentration (MIC) with E. coli (Ec) (setting [3]) was < 8 µg/mL.
`CO[C@@H]1CN(Cc2ccc(-n3ccc(NC(=O)N4CCN(C(=O)C(C)(C)N)CC4)nc3=O)cc2)CC[C@H]1N` [Compound 216]: the IC50 in assay [1] was > 1 µM. In addition, the MIC in the assay on E. coli (Ec) (setting [3]) is 8 to 32 µg/mL.
With `CC(C)(N)N1CCN(C(=O)Nc2ccn(-c3ccc(CN4CCC(N)CC4)cc3)c(=O)n2)CC1` [Compound 230], the IC50 in assay [1] and in assay [2] was > 1 µM in each case. In the assay with E. coli (Ec) (setting [3]), the minimal inhibitory concentration (MIC) was 8 to 32 µg/mL.
Take `CC(C)(N)CN1CCN(Cc2ccc(-n3ccc(NC(=O)N4CCN(C(=O)C(C)(C)N)CC4)nc3=O)cc2)CC1` [Compound 226]: the IC50 is < 0.5 µM in assay [1] and > 1 µM in assay [2]. Further, in the assay on E. coli (Ec) (setting [3]), the MIC is < 8 µg/mL.
On to `CC(C)(N)C(=O)N1CCN(C(=O)Nc2ccn(-c3ccc(CN4CCC(C(C)(C)N)CC4)cc3)c(=O)n2)CC1` [Compound 253], for which the IC50 in assay [1] was < 0.5 µM; in assay [2] it was > 1 µM. The MIC in the assay on E. coli (Ec) (setting [3]) is < 8 µg/mL.
The like results for `CC(C)(N)C(=O)N1CCN(C(=O)Nc2ccn(-c3ccc(CN4CC[C@@H](N)C4)cc3)c(=O)n2)CC1` [Compound 239] were, in that order, < 0.5 µM, > 1 µM and < 8 µg/mL.
`CC(C)(N)C(=O)N1CCN(C(=O)Nc2ccn(-c3ccc(CN4CC[C@H](N)C4)cc3)c(=O)n2)CC1` [Compound 241]: the results for the IC50 in assay [1] and in assay [2] were < 0.5 µM and > 1 µM, respectively. The minimal inhibitory concentration (MIC) with E. coli (Ec) (setting [3]) was in the range of 8 to 32 µg/mL.
The matching figures for `CC1(N)CN(Cc2ccc(-n3ccc(NC(=O)N4CCN(C(=O)C(C)(C)N)CC4)nc3=O)cc2)C1` [Compound 238]: > 1 µM, > 1 µM and < 8 µg/mL.
Turning to `C[C@](N)(CO)C(=O)N1CCN(C(=O)Nc2ccn(-c3ccc(CN4CCC(N)CC4)cc3)c(=O)n2)CC1` [Compound 97], the IC50 in assay [1] was < 0.5 µM; in assay [2] it was > 1 µM. In addition, the MIC with E. coli (Ec) (setting [4]) is 8 to 32 µg/mL.
In the case of `CC(C)(N)C(=O)N1CCN(C(=O)Nc2ccn(-c3ccc(CN4CCC[C@@H](N)C4)cc3)c(=O)n2)CC1` [Compound 236], the IC50 in assay [1] and in assay [2] was > 1 µM throughout. In the assay with E. coli (Ec) (setting [3]), the minimum inhibitory concentration (MIC) is < 8 µg/mL.
In the case of `CC(Cc1ccc(-n2ccc(NC(=O)N3CCN(C(=O)C(C)(C)N)CC3)nc2=O)cc1)NCC1CNC1` (stereo not drawn) [Compound 346, hydrochloride salt], the figures for the IC50 in assay [1] (hydrochloride salt) and in assay [2] were 0.5 to 1 µM and > 1 µM, respectively. In the assay with E. coli (Ec), the MIC was > 32 µg/mL.
For the compound `CNC1CCN(Cc2ccc(-n3ccc(NC(=O)N4CCN(C(=O)C(C)(C)N)CC4)nc3=O)cc2)CC1` [Compound 250], the IC50 in assay [1] is < 0.5 µM; in assay [2] it was > 1 µM. Also, the MIC with E. coli (Ec) (setting [3]) was < 8 µg/mL.
The like results for `CC(C)(N)C(=O)N1CCN(C(=O)Nc2ccn(-c3ccc(CN4CCC(F)(CN)CC4)cc3)c(=O)n2)CC1` [Compound 248] were, in that order, < 0.5 µM, > 1 µM and < 8 µg/mL.
The like results for `C[C@@H](N)C1CCN(Cc2ccc(-n3ccc(NC(=O)N4CCN(C(=O)[C@@](C)(N)CO)CC4)nc3=O)cc2)CC1` [Compound 222] were, in that order, < 0.5 µM, > 1 µM and < 8 µg/mL.
As for `CC(C)(N)C(=O)N1CCN(C(=O)Nc2ccn(-c3ccc(CN4CC[C@@H](N)[C@H](F)C4)cc3)c(=O)n2)CC1` [Compound 208], in assay [1], the IC50 is > 1 µM. In the assay on E. coli (Ec) (setting [3]), the MIC was in the range of 8 to 32 µg/mL.
Turning to `C[C@H](N)C1CCN(Cc2ccc(-n3ccc(NC(=O)N4CCN(C(=O)[C@@](C)(N)CO)CC4)nc3=O)cc2)CC1` [Compound 221], the IC50 was < 0.5 µM in assay [1] and > 1 µM in assay [2]. The minimum inhibitory concentration (MIC) in the assay with E. coli (Ec) (setting [3]) is < 8 µg/mL.
In the case of `CCOC(=O)C(c1ccc(-n2ccc(NC(=O)N3CCN(C(=O)C(C)(C)N)CC3)nc2=O)cc1)N1CCC(N)CC1` (stereo not drawn) [Compound 92], the IC50 in assay [1] was > 1 µM. The minimal inhibitory concentration (MIC) with E. coli (Ec) (setting [4]) was > 32 µg/mL.
As for `CN(C)C1CCN(Cc2ccc(-n3ccc(NC(=O)N4CCN(C(=O)C(C)(C)N)CC4)nc3=O)cc2)CC1` [Compound 214], in assay [1], the IC50 is < 0.5 µM. Also, in the assay on E. coli (Ec) (setting [3]), the MIC is < 8 µg/mL.
